Laboratory results taken from patent US20250051293A1, “NOVEL OXADIAZOLE DERIVATIVE AND USE THEREOF” (CELROS BIOTECH, priority 2021, published 2025).
Where two headings read alike, the source gives them in different places.

Legend:
human NOX4 = target: T1, human NOX4 (Homo sapiens, UniProt Q9NPH5); assay: Lucigenin chemiluminescence assay, drosophila membranes expressing hNOX4; assay type: biochemical; details: average of three repeats
T1 construct: made in house; host or cells: transgenic Drosophila (Da-GAL4 driven UAS-hNOX4, dDuox RNAi background); membranes from homogenized flies
T1 sequence (Q9NPH5 1-578): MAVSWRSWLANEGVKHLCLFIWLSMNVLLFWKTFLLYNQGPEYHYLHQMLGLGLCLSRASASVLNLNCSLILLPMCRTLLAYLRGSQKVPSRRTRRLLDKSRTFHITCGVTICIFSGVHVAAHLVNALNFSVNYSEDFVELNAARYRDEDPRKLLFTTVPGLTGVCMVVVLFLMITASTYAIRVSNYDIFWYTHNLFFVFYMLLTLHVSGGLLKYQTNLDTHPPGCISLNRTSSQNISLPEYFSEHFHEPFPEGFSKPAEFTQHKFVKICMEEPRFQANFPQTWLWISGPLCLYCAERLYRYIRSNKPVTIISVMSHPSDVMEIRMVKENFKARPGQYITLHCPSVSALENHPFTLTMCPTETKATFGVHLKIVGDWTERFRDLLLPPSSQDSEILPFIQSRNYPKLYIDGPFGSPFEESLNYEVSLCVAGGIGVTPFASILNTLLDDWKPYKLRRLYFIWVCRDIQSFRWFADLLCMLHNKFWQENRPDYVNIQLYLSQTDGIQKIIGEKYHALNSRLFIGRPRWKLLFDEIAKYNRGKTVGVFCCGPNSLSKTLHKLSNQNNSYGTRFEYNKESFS
Experimental: (§1) Human NOX isozymes were provided from transgenic flies expressing human NOX isozymes from the daughterless (Da)-GAL4 promoter. The genotype of each fly line is shown below. • human NOX2:UAS-hNOX2/UAS-dDuox-RNAi; Da-GAL4/+ • human NOX4:UAS-hNOX4/UAS-dDuox-RNAi; Da-GAL4/+
(§2) Transgenic flies were homogenized in PBS containing protease inhibitors (aprotinin, leupeptin) to obtain drosophila membranes of each NOX isozyme. The membranes were incubated with the compounds (100 μM, 10 μM, 1 μM, 0.1 μM, 0.01 μM, 0.001 μM, and 0 μM) for 10 minutes in a shaker. Then, to the membranes, a mixture of 500 μM NADPH (R-nicotinamide adenine dinucleotide 2′-phosphate reduced tetrasodium salt hydrate; Sigma-Aldrich) and 400 μM lucigenin (N,N′-dimethyl-9,9-biacridinium dinitrate; Sigma-Aldrich) in 1× HEPES (4-(2-hydroxyethyl)-1-piperazineethanesulfonic acid) buffer was added. Lucigenin chemiluminescence was detected at 1-minute intervals for 10 minutes using a multimode microplate reader (SpectraMax iD3, Molecular Devices). IC50 values were calculated with Graph-Pad Prism 5 (GraphPad Software).
(§3) The lucigenin chemiluminescence assay was performed with drosophila membranes expressing hNOX1, hNOX2, and hNOX4. The assay was repeated three times and the IC50 values were averaged.

human NOX2 = target: T2, human NOX2 (Homo sapiens, UniProt P04839); assay: Lucigenin chemiluminescence assay, drosophila membranes expressing hNOX2; assay type: biochemical; details: average of three repeats
T2 construct: made in house; host or cells: transgenic Drosophila (Da-GAL4 driven UAS-hNOX2, dDuox RNAi background); membranes from homogenized flies
T2 sequence (P04839 2-570 limits assumed): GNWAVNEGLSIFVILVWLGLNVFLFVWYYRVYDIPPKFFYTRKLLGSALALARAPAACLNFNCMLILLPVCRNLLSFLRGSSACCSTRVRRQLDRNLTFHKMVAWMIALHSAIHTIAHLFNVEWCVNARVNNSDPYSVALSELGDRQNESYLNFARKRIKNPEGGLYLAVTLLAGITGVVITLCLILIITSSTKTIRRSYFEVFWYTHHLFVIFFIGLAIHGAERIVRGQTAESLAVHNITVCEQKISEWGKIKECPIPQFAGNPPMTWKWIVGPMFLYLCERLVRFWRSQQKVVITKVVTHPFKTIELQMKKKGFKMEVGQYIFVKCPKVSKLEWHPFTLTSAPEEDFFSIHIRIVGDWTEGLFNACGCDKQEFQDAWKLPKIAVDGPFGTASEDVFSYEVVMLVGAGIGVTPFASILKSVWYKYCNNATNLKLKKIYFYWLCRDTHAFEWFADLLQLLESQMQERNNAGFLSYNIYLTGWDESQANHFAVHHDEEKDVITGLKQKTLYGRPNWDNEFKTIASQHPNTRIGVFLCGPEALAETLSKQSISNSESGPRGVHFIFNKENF
Experimental: as §1, §2, §3

PAMPA-BBB assay = assay type: in vitro ADME
Experimental: The parallel artificial membrane permeability assay (PAMPA) was performed to determine the brain barrier blood (BBB) permeability. […] For the Blank measurement, the donor buffer was dispensed into a high sensitivity UV plate at 150 μl per well and the UV values were measured (Blank sample). For the initial value measurement, the mixture in the deep well plate was dispensed 150 μl per well into the UV plate and the UV values were measured (initial sample). Next, 200 μl of the test compound mixture was dispensed onto the donor plate of the PAMPA sandwich, and the acceptor plate of the PAMPA sandwich was inverted and the membrane was coated with 5 μl of BBB-lipid solution. Then, 200 μl of acceptor sink buffer was added to each well of the acceptor plate, and the acceptor plate and donor plate were combined and incubated at 25° C. for 4 hours. […] Finally, the permeability (Pe(10^−6 cm/sec)) was analyzed using the PAMPA explore program. The experiment was performed in three replicates. The permeability of the material was analyzed by UV measurement and LC-MS/MS, the specific conditions of which are described below.

[1] = Metabolic stability in human liver microsomes; assay type: in vitro ADME; details: human liver microsomes 0.5 mg/ml, 1 μM, 30 minutes, 37° C., NADPH
Experimental: The stability of a drug may be predicted by using liver microsomes to determine the extent to which the drug is metabolized in the liver. […] Thus, a metabolic stability verification experiment was performed on the oxadiazole derivatives according to The present disclosure.
Specifically, sample treatment human liver microsomes (0.5 mg/ml), 0.1 M phosphate buffer (pH 7.4), and test compound at a concentration of 1 μM were added, and the mixture was pre-incubated at 37° C. for 5 minutes, followed by addition of NADPH Regeneration system solution and incubation at 37° C. for 30 minutes. An acetonitrile solution containing an internal standard (chlorpropamide) was then added to terminate the reaction, followed by centrifugation for 5 minutes (14,000 rpm, 4° C.). Then, the supernatant was injected into the LC-MS/MS system to analyze the substrate drug to evaluate the metabolic stability of the two compounds.
The HPLC column was an Acquity UPLC BEH Amide column (2.1×100 mm, 1.7 μm particle size; Waters, Ireland). The mobile phases were distilled water containing 0.1% formic acid (A) and acetonitrile containing 0.1% formic acid (B). Data analysis was performed using Analyst software (version 1.6.3).

U87 = assay: Mouse model xenografted with brain tumor glioblastoma U87; assay type: in vivo, mice; details: Example 2 study: Example 2 50 mg/kg 5 times per week, TMZ 5 mg/kg 2 times per week, from 20 days after xenografting; vehicle 42 days
Experimental: To confirm the therapeutic effect on brain tumor glioblastoma, U87 (5×10^4), a human brain tumor cell line, was xenografted into the brains of mice to establish a brain tumor model, followed by oral administration of the drugs.
Different experimental groups were evaluated for each compound.
First, with respect to the compound of Example 1, the experimental groups were divided into Vehicle (n=3) and the compound of Example 1, 50 mg/kg (n=3) and the administered with the drug orally 5 times a week 20 days after U87 xenografting.
With respect to the compound of Example 2, the experimental groups were divided into Vehicle (n=9), TMZ 5 mg/kg (Temozolomide, n=10, 2 times per week), the compound of Example 2, 50 mg/kg (n=8, 5 times per week), and combination (TMZ+the compound of Example 2, n=7), and began receiving the drug 20 days after U87 xenografting.

[2] = 50 μM, incubation 4 hr, pH 7.4, 25° C., U.V, read-out: Permeability Pe

Row | Compound | IC50 (human NOX4) [µM] | IC50 (human NOX2) [µM] | Papp at 4 h, 50 μM (PAMPA-BBB assay; [2]) [nm/s] | Human (% ) remaining, microsomal stability [1] [%] | Papp at 4 h, 50 μM (PAMPA-BBB assay; pH 7.4) [nm/s] | median survival time (U87) [days]
1 | O=C(Nc1nnc(-c2cccc(-c3ccoc3)c2)o1)c1cc(F)cc(C(F)(F)F)c1 [Example 11] | 0.26 | 0.17 | > 4 | – | – | –
2 | O=C(Nc1nnc(-c2cccc(-c3ccoc3)c2)o1)c1ccc(F)c(C(F)(F)F)c1 [Example 10] | 0.16 | 0.1 | > 4 | 94.9 | – | –
3 | O=C(Nc1nnc(-c2ccccc2)o1)c1cc(F)cc(C(F)(F)F)c1 [Example 3, 3-fluoro-N-(5-phenyl-1,3,4-oxadiazol-2-yl)-5-(trifluoromethyl)benzamide] | 0.38 | 0.24 | – | – | – | –
4 | O=C(Nc1nnc(-c2cccc(Cl)c2)o1)c1ccc(F)c(C(F)(F)F)c1 [Example 6, N-(5-(3-chlorophenyl)-1,3,4-oxadiazol-2-yl)-4-fluoro-3-(trifluoromethyl)benzamide] | 0.27 | 0.23 | – | – | – | –
5 | CC(=O)[C@H]1CC[C@H]2[C@@H]3CCC4=CC(=O)CC[C@]4(C)[C@H]3CC[C@]12C [Progesterone, reference compound] | – | – | – | – | > 4 | –
6 | O=C(Nc1nnc(-c2cccc(-c3ccsc3)c2)o1)c1ccc(F)c(C(F)(F)F)c1 [Example 8] | 0.19 | 0.16 | – | – | – | –
7 | Cn1nnc2c(C(N)=O)ncn2c1=O [TMZ, Temozolomide, reference compound] | – | – | – | – | – | 54.5
8 | CNC(=C[N+](=O)[O-])NCCSCc1ccc(CN(C)C)o1 [Ranitidine, reference compound] | – | – | – | – | < 4 | –
9 | O=C(Nc1nnc(-c2cccc(Br)c2)o1)c1cc(F)cc(C(F)(F)F)c1 [Example 13, N-(5-(3-bromophenyl)-1,3,4-oxadiazol-2-yl)-3-fluoro-5-(trifluoromethyl)benzamide] | 0.17 | 0.15 | > 4 | 79.0 | – | –
10 | O=C(Nc1nnc(-c2cccc(Br)c2)o1)c1ccc(F)c(C(F)(F)F)c1 [Example 4, N-(5-(3-bromophenyl)-1,3,4-oxadiazol-2-yl)-4-fluoro-3-(trifluoromethyl)benzamide] | 0.25 | 0.21 | – | – | – | –
11 | O=C(Nc1nnc(-c2cccc(-c3ccsc3)c2)o1)c1cc(F)cc(C(F)(F)F)c1 [Example 9] | 0.13 | 0.15 | – | – | – | –
12 | O=C(Nc1nnc(-c2cccc(C(F)(F)F)c2)o1)c1ccc(F)c(C(F)(F)F)c1 [Example 5, 4-fluoro-3-(trifluoromethyl)-N-(5-(3-(trifluoromethyl)phenyl)-1,3,4-oxadiazol-2-yl)benzamide] | 0.14 | 0.18 | – | – | – | –
13 | O=C(Nc1nnc(-c2ccccc2)o1)c1ccc(I)c(C(F)(F)F)c1 [Example 7, 4-iodo-N-(5-phenyl-1,3,4-oxadiazol-2-yl)-3-(trifluoromethyl)benzamide] | 0.12 | 0.19 | – | – | – | –
14 | O=C(Nc1nnc(-c2cccc(C(F)(F)F)c2)o1)c1cc(F)cc(C(F)(F)F)c1 [Example 12, 3-fluoro-5-(trifluoromethyl)-N-(5-(3-(trifluoromethyl)phenyl)-1,3,4-oxadiazol-2-yl)benzamide] | 0.12 | 0.14 | – | 90.0 | – | –
